According to US20100041089A1, “IMPROVED METHOD FOR DETECTING CHEMICAL […]” (priority 2006, published 2010):

Test system: yeast genes (expressed mRNA)
Experiment: DNA chip measurement of expressed mRNA of yeast genes after culture with a toxic chemical substance
Type: cell-based, Saccharomyces cerevisiae S288C
Conditions: for level of expressed mRNA in the presence of chemical substance / level in the absence of chemical substance: cultured two hours with the chemical substance; for The level of expressed mRNA in the presence of chemical substance/The level of expressed mRNA in the absence of chemical substance: cultured two hours with substance
Experimental: Yeast (Saccharomyces cerevisiae S288C (a SUC2mal mel gap2 CUP1)) were cultured at 25° C. on YPD medium (yeast extract 1%, polypeptone 2%, glucose 2%). One of toxic chemical substances was added to the cell at logarithmic growth phase, and the cell was further cultured for two hours. Cell was cultured without any chemical substance in the same condition, and was used as a control. Concentrations of the chemical substances were defined to inhibit the growth of the yeast but not lead to death.
After the completion of cultivation, the culture was centrifuged to collect the cells. To the cells, sodium acetate buffer (50 mM sodium acetate, 10 mM EDTA, 1% SDS) was added, and the mixture was shaken at 65° C. for five minutes, followed by returning to room temperature, and obtaining the supernatant, which procedure was repeated two times. To the supernatant, ½ amount of a solution of phenol/chloroform (1:1) was added, and the mixture was centrifuged to give a supernatant, an equal amount of chloroform was added, and the mixture was centrifuged to give a supernatant. To the supernatant, an equal amount of isopropanol containing 0.3 M sodium acetate was added, and the mixture was allowed to stand at room temperature for 30 minutes, after which the mixture was centrifuged to give sediment of the whole RNAs. Seventy % ethanol was added to the sediment, and the mixture was again centrifuged to give sediment, which was then dried and dissolved in water. mRNA was isolated from the whole RNAs as followings. In view of the fact that a poly A chain is attached to the 3′ terminus of mRNA, a polynucleotide having a poly T structure which was immobilized on the surface of latex beads was used to trap the mRNA, and then the mRNA was washed and eluted with spine column (Oligotex-dT30<Super>mRNA Purification Kit, Takara). Reverse transcription of the mRNA was conducted with a reverse transcriptase (Super Script II Reverse Transcriptase; catalogue No. 18064-014, GibcoBRL) using fluorescence-labeled nucleotides to give cDNAs that were introduced with Cy3-dUTP or Cy5-dUTP during the reverse transcription.
The labeled cDNAs were dissolved in TE buffer (10 mM Tris-HCl/1 mM EDTA, pH 8.0), and the solution was dropped on the DNA chip containing the whole genes of yeast (DNA Chip Research Inc. Japan) so that the cDNAs were hybridized on the DNA chip at 65° C. for over 12 hours. The fluoresces intensity of the DNA chip was read with a scanner, and the ratio relative to the fluorescence intensity resulting from the absence of chemical substance was estimated as the following, which is shown in Tables 1 to 9.
In the Tables, “Intensity” indicated in the rightmost column is a value of the level of expressed mRNA of each gene in control cells as divided by the average level of the expressions of the whole genes. A gene of which mRNA level is lower in control, and is higher in cases of addition of chemical substance, is especially useful in the detection of toxic substances.
Here, when a ratio of an amount of mRNA expressed in the presence of the chemical substance to an amount of mRNA expressed in the absence of the chemical substance is two or more, then it is considered significant.

Substance: Manganese ethylenebis(dithiocarbamate) [(8)]
- level of expressed mRNA in the presence of chemical substance / level in the absence of chemical substance (yeast gene YDR128W): 1.1
- level of expressed mRNA in the presence of chemical substance / level in the absence of chemical substance (yeast gene YDR133C): 0.5
- level of expressed mRNA in the presence of chemical substance / level in the absence of chemical substance (yeast gene YDR250C): 1.1
- level of expressed mRNA in the presence of chemical substance / level in the absence of chemical substance (yeast gene YDR278C): 0.5
- level of expressed mRNA in the presence of chemical substance / level in the absence of chemical substance (yeast gene YDR281C): 1.2
- The level of expressed mRNA in the presence of chemical substance/The level of expressed mRNA in the absence of chemical substance (yeast gene YDR330W): 1.1
- level of expressed mRNA in the presence of chemical substance / level in the absence of chemical substance (yeast gene YDR366C): 1.1
- The level of expressed mRNA in the presence of chemical substance/The level of expressed mRNA in the absence of chemical substance (yeast gene YDR411C): 0.9
- The level of expressed mRNA in the presence of chemical substance/The level of expressed mRNA in the absence of chemical substance (yeast gene YDR511W): 1.7
- The level of expressed mRNA in the presence of chemical substance/The level of expressed mRNA in the absence of chemical substance (yeast gene YDR545W): 0.6
- The level of expressed mRNA in the presence of chemical substance/The level of expressed mRNA in the absence of chemical substance (yeast gene YEL001C): 1.2
- The level of expressed mRNA in the presence of chemical substance/The level of expressed mRNA in the absence of chemical substance (yeast gene YER004W): 1.1
- The level of expressed mRNA in the presence of chemical substance/The level of expressed mRNA in the absence of chemical substance (yeast gene YER035W): 1.2
- The level of expressed mRNA in the presence of chemical substance/The level of expressed mRNA in the absence of chemical substance (yeast gene YER079W): 1.4
- The level of expressed mRNA in the presence of chemical substance/The level of expressed mRNA in the absence of chemical substance (yeast gene YER106W): 1.2
- The level of expressed mRNA in the presence of chemical substance/The level of expressed mRNA in the absence of chemical substance (yeast gene YER158C): 0.9
- The level of expressed mRNA in the presence of chemical substance/The level of expressed mRNA in the absence of chemical substance (yeast gene YER163C): 1.4
- The level of expressed mRNA in the presence of chemical substance/The level of expressed mRNA in the absence of chemical substance (yeast gene YER175C): 1.1
- The level of expressed mRNA in the presence of chemical substance/The level of expressed mRNA in the absence of chemical substance (yeast gene YFL006W): 1.0
- The level of expressed mRNA in the presence of chemical substance/The level of expressed mRNA in the absence of chemical substance (yeast gene YFL010C): 1.0
- The level of expressed mRNA in the presence of chemical substance/The level of expressed mRNA in the absence of chemical substance (yeast gene YFL024C): 0.9
- The level of expressed mRNA in the presence of chemical substance/The level of expressed mRNA in the absence of chemical substance (yeast gene YFL032W): 0.4
- level of expressed mRNA in the presence of chemical substance / level in the absence of chemical substance (yeast gene YFR026C): 1.3
- The level of expressed mRNA in the presence of chemical substance/The level of expressed mRNA in the absence of chemical substance (yeast gene YGL037C): 1.2
- The level of expressed mRNA in the presence of chemical substance/The level of expressed mRNA in the absence of chemical substance (yeast gene YGL047W): 1.1
- The level of expressed mRNA in the presence of chemical substance/The level of expressed mRNA in the absence of chemical substance (yeast gene YGL053W): 1.2
- level of expressed mRNA in the presence of chemical substance / level in the absence of chemical substance (yeast gene YGL088W): 0.5
- The level of expressed mRNA in the presence of chemical substance/The level of expressed mRNA in the absence of chemical substance (yeast gene YGL121C): 3.0
- The level of expressed mRNA in the presence of chemical substance/The level of expressed mRNA in the absence of chemical substance (yeast gene YGL199C): 0.7
- level of expressed mRNA in the presence of chemical substance / level in the absence of chemical substance (yeast gene YGR038W): 0.7
- The level of expressed mRNA in the presence of chemical substance/The level of expressed mRNA in the absence of chemical substance (yeast gene YGR101W): 0.8
- The level of expressed mRNA in the presence of chemical substance/The level of expressed mRNA in the absence of chemical substance (yeast gene YGR110W): 1.5
- The level of expressed mRNA in the presence of chemical substance/The level of expressed mRNA in the absence of chemical substance (yeast gene YGR130C): 0.9
- level of expressed mRNA in the presence of chemical substance / level in the absence of chemical substance (yeast gene YGR139W): 0.6
- The level of expressed mRNA in the presence of chemical substance/The level of expressed mRNA in the absence of chemical substance (yeast gene YGR154C): 1.7
- The level of expressed mRNA in the presence of chemical substance/The level of expressed mRNA in the absence of chemical substance (yeast gene YGR221C): 1.1
- level of expressed mRNA in the presence of chemical substance / level in the absence of chemical substance (yeast gene YGR243W): 1.3
- level of expressed mRNA in the presence of chemical substance / level in the absence of chemical substance (yeast gene YGR293C): 1.3
- level of expressed mRNA in the presence of chemical substance / level in the absence of chemical substance (yeast gene YHL006C): 1.1
- level of expressed mRNA in the presence of chemical substance / level in the absence of chemical substance (yeast gene YHR095W): 1.0
- level of expressed mRNA in the presence of chemical substance / level in the absence of chemical substance (yeast gene YHR105W): 1.0
- The level of expressed mRNA in the presence of chemical substance/The level of expressed mRNA in the absence of chemical substance (yeast gene YHR138C): 1.4
- level of expressed mRNA in the presence of chemical substance / level in the absence of chemical substance (yeast gene YHR181W): 0.9
- The level of expressed mRNA in the presence of chemical substance/The level of expressed mRNA in the absence of chemical substance (yeast gene YHR199C): 1.0
- The level of expressed mRNA in the presence of chemical substance/The level of expressed mRNA in the absence of chemical substance (yeast gene YIL023C): 0.7
- The level of expressed mRNA in the presence of chemical substance/The level of expressed mRNA in the absence of chemical substance (yeast gene YIL041W): 0.9
- The level of expressed mRNA in the presence of chemical substance/The level of expressed mRNA in the absence of chemical substance (yeast gene YIL087C): 1.1
- level of expressed mRNA in the presence of chemical substance / level in the absence of chemical substance (yeast gene YIL127C): 1.2
- level of expressed mRNA in the presence of chemical substance / level in the absence of chemical substance (yeast gene YJL017W): 1.0
- level of expressed mRNA in the presence of chemical substance / level in the absence of chemical substance (yeast gene YJL037W): 1.2
- The level of expressed mRNA in the presence of chemical substance/The level of expressed mRNA in the absence of chemical substance (yeast gene YJL057C): 1.5
- The level of expressed mRNA in the presence of chemical substance/The level of expressed mRNA in the absence of chemical substance (yeast gene YJL066C): 0.8
- The level of expressed mRNA in the presence of chemical substance/The level of expressed mRNA in the absence of chemical substance (yeast gene YJL082W): 0.9
